Test results published in patent US20240000847A1, “METHODS” (bluebird bio, Inc., priority 2020, published 2024).
Like-named read-outs stand apart in the source and are kept apart here.

Tests used:
[1] = test system: hematopoietic stem cells (LSK: lineage negative, Sca1+, ckit+); details: mice, 8.3-25 mg/kg anti-CD117 and anti-CD47 antibodies, two doses of 50 mg/kg cyclophosphamide, vs vehicle or antibodies alone
Procedure: In another experiment, immunocompetent mice (C57Bl/6 or Balb/C) were dosed with 8.3-25 mg/kg of anti-CD117 and anti-CD47 antibodies with or without two doses of 50 mg/kg of cyclophosphamide approximately 48 hours apart. Five to seven days after antibody treatment, mouse bone marrow was analyzed by flow cytometry or plated in methocellulose medium to evaluate impacts on the hematopoietic stem cells. […] FIG. 3.

[2] = test system: bone marrow macrophages; details: mice; for F4/80+ macrophage staining in bone marrow smears (pathology): Ctx dosed at 2×100 mg/kg, FIG. 2B, 100 mg/kg; for F4/80+ macrophage staining in bone marrow smears (pathology) / activation status of macrophages recruited to the bone marrow (FcγRI signal): compared to vehicle; for activation status of macrophages recruited to the bone marrow (FcγRI signal): FIG. 2A bottom panel
Procedure: Immunocompetent mice (C57Bl/6 or Balb/C) were dosed with vehicle of one of four different cyclophosphamide (Cytoxan) regimens including: one dose of 50 mg/kg, one dose of 100 mg/kg, two doses of 50 mg/kg approximately 48 hours apart, and two doses of 100 mg/kg approximately 48 hours apart. Three days following the final dose of the regimen, mouse bone marrow was evaluated for macrophage number and phenotype of. Flow cytometry was used to characterize bone marrow macrophages. Briefly, bone marrow was stained with murine macrophage markers including CD11b, F4/80, CD16 (FcγRIII; marker of activated macrophages), CD32 (FcγRII; inhibitory macrophage marker), CD68, and CD64 (FcγRI; marker of activated macrophages). In addition, bone marrow smears were prepared for pathology analysis and stained with F4/80 to quantify macrophages.

O=P1(N(CCCl)CCCl)NCCCO1 (centres unmarked) [cyclophosphamide]
depletion of stem cells (LSK) in the bone marrow ([1]; 5-7 days after antibody, FIG. 3 left): enhanced the antibody-mediated depletion
number of colony forming cells (CFUs) from bone marrow ([1]; methocellulose, FIG. 3 right): reduced the number of colony forming cells
increase of macrophage content in the bone marrow ([2]; 1 or 2 doses of 50 or 100 mg/kg, three days after final dose, flow cytometry, FIG. 2A top panel): up to 2.5 fold
F4/80+ macrophage staining in bone marrow smears (pathology) [2]: increased macrophage staining
F4/80+ macrophage staining in bone marrow smears (pathology) ([2]; listed as Cyclophosphamide): increase
macrophage recruitment in bone marrow compared to vehicle ([2]; FIG. 2A top panel): increased macrophage recruitment
activation status of macrophages recruited to the bone marrow (FcγRI signal) [2]: increased macrophage activation
activation status of macrophages recruited to the bone marrow (FcγRI signal) ([2]; listed as Cyclophosphamide): enhanced activation status
